According to patent US8507010B2, “Compositions comprising quinazoline derivatives” (Shanghai Allist Pharmaceuticals, Inc., priority 2008, dated 2013):

What was measured:
[1] = system: human epidermoid squamous carcinoma cell A431; conditions: stated in CN 200610023526.7 / WO 2007/082434; cited from earlier work
erbB-2 kinase = erbB-2 kinase (Homo sapiens, UniProt P04626); conditions: stated in CN 200610023526.7 / WO 2007/082434; cited from earlier work
[2] = system: human breast cancer cell BT-474; conditions: stated in CN 200610023526.7 / WO 2007/082434; cited from earlier work
in vivo = conditions: male, SD, rat
Protocol: Intragastric administration (ig): 16 healthy SD rats (Shanghai Super-B&K Laboratory Animal Corp. Ltd., grade SPF), male, weighted 200-250 g, randomly divided into four groups, were each administered intragastrically with a drug: the compound prepared according to Example 1 (21.68 mg/kg), crystalline form A, crystalline form B, or crystalline form C (30 mg/kg) of p-toluenesulfonate of said compound. The blood samples were collected at 0.5 h, 1.0 h, 1.5 h, 2.0 h, 3.0 h, 5.0 h, 7.0 h, 9.0 h, 12 h, and 24 h after administration, which were then isolated to prepare the plasma. The concentrations of the drugs in the plasma were determined by means of liquid phase chromatography/tandem mass spectrometer (Agilent 1200LC/6410B), and the concentration-time curve was obtained.

[3] = system: human epidermoid squamous carcinoma cell A431; conditions: stated in CN 200610023526.7 / WO 2007/082434; cited from earlier work; remark: listed apart in the source

erbB-2 kinase, sequence (P04626 23-1255): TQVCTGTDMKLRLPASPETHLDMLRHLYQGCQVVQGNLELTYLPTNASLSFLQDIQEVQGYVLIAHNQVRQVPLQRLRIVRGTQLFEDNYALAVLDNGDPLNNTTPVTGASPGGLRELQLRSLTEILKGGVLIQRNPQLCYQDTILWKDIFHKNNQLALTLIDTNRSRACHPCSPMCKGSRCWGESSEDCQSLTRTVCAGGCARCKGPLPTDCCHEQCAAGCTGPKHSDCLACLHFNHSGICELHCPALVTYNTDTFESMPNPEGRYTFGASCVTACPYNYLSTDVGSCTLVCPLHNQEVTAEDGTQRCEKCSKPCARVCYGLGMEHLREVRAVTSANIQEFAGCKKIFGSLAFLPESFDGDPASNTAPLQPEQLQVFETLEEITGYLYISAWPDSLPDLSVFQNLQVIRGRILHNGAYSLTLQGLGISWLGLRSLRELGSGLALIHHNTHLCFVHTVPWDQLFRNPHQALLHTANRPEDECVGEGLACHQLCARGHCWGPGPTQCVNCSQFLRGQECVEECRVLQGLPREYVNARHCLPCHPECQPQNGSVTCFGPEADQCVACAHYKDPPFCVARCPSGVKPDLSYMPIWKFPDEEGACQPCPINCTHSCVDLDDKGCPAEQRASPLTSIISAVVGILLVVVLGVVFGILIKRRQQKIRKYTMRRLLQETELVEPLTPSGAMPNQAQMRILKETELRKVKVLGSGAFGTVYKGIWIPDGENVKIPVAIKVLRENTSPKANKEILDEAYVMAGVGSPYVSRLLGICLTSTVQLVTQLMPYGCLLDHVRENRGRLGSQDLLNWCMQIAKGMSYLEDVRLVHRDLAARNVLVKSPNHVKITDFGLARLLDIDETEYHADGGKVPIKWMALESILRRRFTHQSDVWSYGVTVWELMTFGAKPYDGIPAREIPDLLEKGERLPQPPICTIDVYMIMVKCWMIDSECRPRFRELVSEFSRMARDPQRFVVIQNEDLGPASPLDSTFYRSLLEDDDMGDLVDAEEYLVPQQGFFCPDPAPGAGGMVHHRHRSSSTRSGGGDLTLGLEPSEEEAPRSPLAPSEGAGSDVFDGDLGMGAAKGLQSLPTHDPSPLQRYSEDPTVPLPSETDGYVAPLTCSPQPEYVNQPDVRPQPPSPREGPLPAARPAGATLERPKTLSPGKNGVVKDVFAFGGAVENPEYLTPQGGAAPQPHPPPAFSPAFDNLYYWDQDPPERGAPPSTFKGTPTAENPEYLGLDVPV

SMILES: C=CC(=O)Nc1ccc2ncnc(Nc3ccc(OCc4cccc(F)c4)c(Cl)c3)c2c1 [The compound of Example 1, N-{4-[3-chloro-4-(3-fluoro-benzyloxy)phenylamino]quinazolin-6-yl}-acrylamide]
- anti-tumor effect on A431 grafted to a nude mouse (in words) [1]: obvious anti-tumor effect
- inhibitory activity against erbB-2 kinase (in words) (erbB-2 kinase): excellent inhibitory activity
- inhibitory effect on growth of BT-474 cells (in words) [2]: remarkable inhibitory effect
- bioavailability (in vivo; absolute bioavailability): 0.95%
- AUC(0-t) (in vivo; po, 21.68 mg/kg, AUC0-t): 106 ng·h/mL
- Cmax (in vivo; po, 21.68 mg/kg, Cmax): 32 ng/mL
- half-life (in vivo; po, 21.68 mg/kg, T1/2): 1.81 h
- Tmax (in vivo; po, 21.68 mg/kg, Tmax): 0.75 h
- inhibitory effect on growth of A431 cells (in words) [3]: remarkable inhibitory effect
